{"source": "ChEMBL document CHEMBL1155237", "about": "“Selective inhibitors of the mutant B-Raf pathway: discovery of a potent and orally bioavailable aminoisoquinoline” (J Med Chem, 2009)", "key": {"[1]": {"molecular_target": "Mitogen-activated protein kinase 6 (Homo sapiens) (UniProt Q16659)", "assay": "Inhibition of ERK3 assessed as enzyme activity at 1 uM relative to untreated control", "set-up": "scale not given: the % may be the effect or the level left"}, "[2]": {"molecular_target": "Dual specificity tyrosine-phosphorylation-regulated kinase 1B (Homo sapiens) (UniProt Q9Y463)", "assay": "Inhibition of DYRK1B assessed as enzyme activity at 1 uM relative to untreated control", "set-up": "scale not given: the % may be the effect or the level left"}, "[3]": {"molecular_target": "BDNF/NT-3 growth factors receptor (Homo sapiens) (UniProt Q16620)", "assay": "Inhibition of TRKB assessed as enzyme activity at 1 uM relative to untreated control", "set-up": "scale not given: the % may be the effect or the level left"}, "[4]": {"molecular_target": "Myotonin-protein kinase (Homo sapiens) (UniProt Q09013)", "assay": "Inhibition of DMPK assessed as enzyme activity at 1 uM relative to untreated control", "set-up": "scale not given: the % may be the effect or the level left"}, "[5]": {"tested_on": "Receptor-type tyrosine-protein kinase FLT3 (Homo sapiens), P36888 [N841I]", "assay": "Inhibition of FLT3 N841I mutant assessed as enzyme activity at 1 uM relative to untreated control", "set-up": "scale not given: the % may be the effect or the level left"}, "[6]": {"molecular_target": "Epidermal growth factor receptor (Homo sapiens) (UniProt P04626+P00533+Q15303+P21860)", "assay": "Inhibition of EGFR S752-I759del mutant assessed as enzyme activity at 1 uM relative to untreated control", "assay_type": "protein assay", "set-up": "scale not given: the % may be the effect or the level left"}, "[7]": {"molecular_target": "MAP kinase-activated protein kinase 2 (Homo sapiens) (UniProt P49137)", "assay": "Inhibition of MAPKAPK2 assessed as enzyme activity at 1 uM relative to untreated control", "set-up": "scale not given: the % may be the effect or the level left"}, "[8]": {"molecular_target": "Calcium/calmodulin-dependent protein kinase type IV (Homo sapiens) (UniProt Q16566)", "assay": "Inhibition of CAMK4 assessed as enzyme activity at 1 uM relative to untreated control", "set-up": "scale not given: the % may be the effect or the level left"}, "[9]": {"molecular_target": "Dual specificity mitogen-activated protein kinase kinase 3 (Homo sapiens) (UniProt P46734)", "assay": "Inhibition of MEK3 assessed as enzyme activity at 1 uM relative to untreated control", "set-up": "scale not given: the % may be the effect or the level left"}, "[10]": {"molecular_target": "Aurora kinase C (Homo sapiens) (UniProt Q9UQB9)", "assay": "Inhibition of AURKC assessed as enzyme activity at 1 uM relative to untreated control", "set-up": "scale not given: the % may be the effect or the level left"}, "[11]": {"assay": "Elimination half life in CD1 mouse", "assay_type": "ADME, organism-based", "settings": "in vivo, read-out: beta t1/2 (converted)"}, "[12]": {"molecular_target": "Calcium/calmodulin-dependent protein kinase type 1 (Homo sapiens) (UniProt Q14012)", "assay": "Inhibition of CAMK1 assessed as enzyme activity at 1 uM relative to untreated control", "set-up": "scale not given: the % may be the effect or the level left"}, "[13]": {"molecular_target": "ALK tyrosine kinase receptor (Homo sapiens) (UniProt Q9UM73)", "sequence (Q9UM73 19-1620 limits assumed)": "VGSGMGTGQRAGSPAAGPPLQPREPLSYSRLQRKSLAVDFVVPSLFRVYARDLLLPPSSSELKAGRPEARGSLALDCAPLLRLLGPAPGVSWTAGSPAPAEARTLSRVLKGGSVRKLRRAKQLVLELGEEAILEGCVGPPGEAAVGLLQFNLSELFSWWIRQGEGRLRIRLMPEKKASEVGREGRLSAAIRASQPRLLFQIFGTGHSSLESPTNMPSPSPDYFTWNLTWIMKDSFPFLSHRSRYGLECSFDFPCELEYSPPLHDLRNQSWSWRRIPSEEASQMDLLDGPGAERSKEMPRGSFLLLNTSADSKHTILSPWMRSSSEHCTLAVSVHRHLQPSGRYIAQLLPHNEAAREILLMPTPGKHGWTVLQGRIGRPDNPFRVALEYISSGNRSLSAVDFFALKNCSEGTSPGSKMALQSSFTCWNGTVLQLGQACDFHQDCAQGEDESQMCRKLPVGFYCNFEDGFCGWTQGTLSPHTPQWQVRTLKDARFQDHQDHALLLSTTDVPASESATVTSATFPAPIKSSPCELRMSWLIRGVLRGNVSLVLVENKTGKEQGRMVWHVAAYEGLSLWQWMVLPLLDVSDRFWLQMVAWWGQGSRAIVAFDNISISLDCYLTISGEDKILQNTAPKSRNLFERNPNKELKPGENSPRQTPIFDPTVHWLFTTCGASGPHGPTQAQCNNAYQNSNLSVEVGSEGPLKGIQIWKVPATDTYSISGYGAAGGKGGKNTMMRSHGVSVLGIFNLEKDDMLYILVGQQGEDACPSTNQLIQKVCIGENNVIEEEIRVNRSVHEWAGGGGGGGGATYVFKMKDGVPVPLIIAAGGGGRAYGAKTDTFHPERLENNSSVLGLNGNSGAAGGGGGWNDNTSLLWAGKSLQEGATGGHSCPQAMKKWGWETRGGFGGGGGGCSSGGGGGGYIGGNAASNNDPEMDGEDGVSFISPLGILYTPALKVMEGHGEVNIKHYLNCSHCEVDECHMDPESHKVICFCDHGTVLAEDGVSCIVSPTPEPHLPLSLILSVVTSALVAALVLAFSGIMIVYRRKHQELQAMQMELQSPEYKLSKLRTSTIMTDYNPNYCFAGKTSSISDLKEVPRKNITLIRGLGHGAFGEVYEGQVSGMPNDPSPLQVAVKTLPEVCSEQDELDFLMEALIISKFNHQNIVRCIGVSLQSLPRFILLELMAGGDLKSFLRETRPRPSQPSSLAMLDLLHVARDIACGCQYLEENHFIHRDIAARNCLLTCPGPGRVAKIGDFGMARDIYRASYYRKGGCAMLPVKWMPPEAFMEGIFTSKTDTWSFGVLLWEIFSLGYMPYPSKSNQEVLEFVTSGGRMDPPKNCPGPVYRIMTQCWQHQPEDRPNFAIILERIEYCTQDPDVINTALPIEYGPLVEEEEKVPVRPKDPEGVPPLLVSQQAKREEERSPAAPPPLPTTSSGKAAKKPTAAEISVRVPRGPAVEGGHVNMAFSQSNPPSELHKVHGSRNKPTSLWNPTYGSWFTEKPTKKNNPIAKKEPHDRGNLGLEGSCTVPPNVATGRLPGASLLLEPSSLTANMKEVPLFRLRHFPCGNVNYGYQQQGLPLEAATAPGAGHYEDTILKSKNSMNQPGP", "assay": "Inhibition of ALK assessed as enzyme activity at 1 uM relative to untreated control", "set-up": "scale not given: the % may be the effect or the level left"}, "[14]": {"molecular_target": "Mitogen-activated protein kinase 12 (Homo sapiens) (UniProt P53778)", "sequence (P53778 whole entry)": "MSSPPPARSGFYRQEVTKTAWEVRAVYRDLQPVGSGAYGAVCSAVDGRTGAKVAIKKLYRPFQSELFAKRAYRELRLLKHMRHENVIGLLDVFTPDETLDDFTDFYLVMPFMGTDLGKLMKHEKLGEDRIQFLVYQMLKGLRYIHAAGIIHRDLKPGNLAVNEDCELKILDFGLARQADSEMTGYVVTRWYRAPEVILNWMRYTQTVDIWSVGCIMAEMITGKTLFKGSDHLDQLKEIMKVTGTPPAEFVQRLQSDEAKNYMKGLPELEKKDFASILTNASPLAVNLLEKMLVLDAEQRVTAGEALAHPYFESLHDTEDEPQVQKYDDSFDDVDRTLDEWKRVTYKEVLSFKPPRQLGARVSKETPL", "assay": "Inhibition of p38-gamma assessed as enzyme activity at 1 uM relative to untreated control", "set-up": "scale not given: the % may be the effect or the level left"}, "[15]": {"assay": "Clearance in CD1 mouse", "assay_type": "ADME, organism-based", "settings": "in vivo"}, "[16]": {"molecular_target": "Tyrosine-protein kinase HCK (Homo sapiens) (UniProt P08631)", "assay": "Inhibition of HCK assessed as enzyme activity at 1 uM relative to untreated control", "set-up": "scale not given: the % may be the effect or the level left"}, "[17]": {"molecular_target": "Serine/threonine-protein kinase 32C (Homo sapiens) (UniProt Q86UX6)", "assay": "Inhibition of YANK3 assessed as enzyme activity at 1 uM relative to untreated control", "set-up": "scale not given: the % may be the effect or the level left"}, "[18]": {"molecular_target": "Inhibitor of nuclear factor kappa-B kinase subunit epsilon (Homo sapiens) (UniProt Q14164)", "assay": "Inhibition of IKK-epsilon assessed as enzyme activity at 1 uM relative to untreated control", "set-up": "scale not given: the % may be the effect or the level left"}, "[19]": {"assay": "Inhibition of FLT3 ITD assessed as enzyme activity at 1 uM relative to untreated control", "set-up": "scale not given: the % may be the effect or the level left"}, "[20]": {"molecular_target": "MAP kinase-interacting serine/threonine-protein kinase 2 (Homo sapiens) (UniProt Q9HBH9)", "sequence (Q9HBH9 whole entry, looked up)": "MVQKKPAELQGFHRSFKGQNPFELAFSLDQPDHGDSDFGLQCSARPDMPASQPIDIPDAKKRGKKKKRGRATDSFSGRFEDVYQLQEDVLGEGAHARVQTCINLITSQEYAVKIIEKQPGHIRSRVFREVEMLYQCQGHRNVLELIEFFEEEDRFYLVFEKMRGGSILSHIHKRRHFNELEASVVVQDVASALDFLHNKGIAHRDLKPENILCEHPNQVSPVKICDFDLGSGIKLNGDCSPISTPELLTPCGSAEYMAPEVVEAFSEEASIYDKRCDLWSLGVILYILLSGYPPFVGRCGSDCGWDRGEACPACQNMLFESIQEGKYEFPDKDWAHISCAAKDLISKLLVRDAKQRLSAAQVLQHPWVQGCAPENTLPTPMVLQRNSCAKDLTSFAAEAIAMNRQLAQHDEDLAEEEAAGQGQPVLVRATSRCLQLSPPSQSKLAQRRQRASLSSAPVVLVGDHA", "assay": "Inhibition of MKNK2 assessed as enzyme activity at 1 uM relative to untreated control", "set-up": "scale not given: the % may be the effect or the level left"}, "[21]": {"molecular_target": "Proto-oncogene tyrosine-protein kinase receptor Ret (Homo sapiens) (UniProt P07949)", "assay": "Inhibition of RET assessed as enzyme activity at 1 uM relative to untreated control", "set-up": "scale not given: the % may be the effect or the level left"}, "[22]": {"assay": "Oral bioavailability in CD1 mouse", "assay_type": "ADME, organism-based", "settings": "in vivo"}, "[23]": {"molecular_target": "Mitogen-activated protein kinase kinase kinase 7 (Homo sapiens) (UniProt O43318)", "sequence (O43318 whole entry)": "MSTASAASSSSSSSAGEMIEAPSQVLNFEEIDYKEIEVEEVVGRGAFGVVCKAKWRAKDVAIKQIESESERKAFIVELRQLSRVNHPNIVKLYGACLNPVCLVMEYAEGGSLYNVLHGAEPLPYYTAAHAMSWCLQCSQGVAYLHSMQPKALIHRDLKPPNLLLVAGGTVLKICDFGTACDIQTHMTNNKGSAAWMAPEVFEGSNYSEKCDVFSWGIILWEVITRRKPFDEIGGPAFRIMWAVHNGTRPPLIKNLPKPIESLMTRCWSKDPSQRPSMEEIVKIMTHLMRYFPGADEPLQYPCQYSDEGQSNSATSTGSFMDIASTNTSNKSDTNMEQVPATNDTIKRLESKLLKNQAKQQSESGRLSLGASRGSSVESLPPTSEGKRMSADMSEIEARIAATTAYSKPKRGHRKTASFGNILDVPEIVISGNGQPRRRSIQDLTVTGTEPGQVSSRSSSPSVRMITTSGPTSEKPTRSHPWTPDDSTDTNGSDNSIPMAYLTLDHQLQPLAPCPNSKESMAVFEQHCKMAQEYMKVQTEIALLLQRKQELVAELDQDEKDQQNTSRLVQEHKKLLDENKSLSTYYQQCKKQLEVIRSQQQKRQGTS", "assay": "Inhibition of TAK1 assessed as enzyme activity at 1 uM relative to untreated control", "set-up": "scale not given: the % may be the effect or the level left"}, "[24]": {"assay": "Clearance in Sprague-Dawley rat at 2 mg/kg, iv and 5 mg/kg, po", "assay_type": "ADME, organism-based", "settings": "in vivo"}, "[25]": {"molecular_target": "Serine/threonine-protein kinase MARK2 (Homo sapiens) (UniProt Q7KZI7)", "assay": "Inhibition of MARK2 assessed as enzyme activity at 1 uM relative to untreated control", "set-up": "scale not given: the % may be the effect or the level left"}, "[26]": {"molecular_target": "Insulin receptor (Homo sapiens) (UniProt P06213)", "assay": "Inhibition of INSR assessed as enzyme activity at 1 uM relative to untreated control", "set-up": "scale not given: the % may be the effect or the level left"}, "[27]": {"molecular_target": "Serine/threonine-protein kinase pim-1 (Homo sapiens) (UniProt P11309)", "assay": "Inhibition of PIM1 assessed as enzyme activity at 1 uM relative to untreated control", "set-up": "scale not given: the % may be the effect or the level left"}, "[28]": {"molecular_target": "Serine/threonine-protein kinase N1 (Homo sapiens) (UniProt Q16512)", "assay": "Inhibition of PKN1 assessed as enzyme activity at 1 uM relative to untreated control", "set-up": "scale not given: the % may be the effect or the level left"}, "[29]": {"molecular_target": "Serine/threonine-protein kinase PAK 4 (Homo sapiens) (UniProt O96013)", "sequence (O96013 whole entry, looked up)": "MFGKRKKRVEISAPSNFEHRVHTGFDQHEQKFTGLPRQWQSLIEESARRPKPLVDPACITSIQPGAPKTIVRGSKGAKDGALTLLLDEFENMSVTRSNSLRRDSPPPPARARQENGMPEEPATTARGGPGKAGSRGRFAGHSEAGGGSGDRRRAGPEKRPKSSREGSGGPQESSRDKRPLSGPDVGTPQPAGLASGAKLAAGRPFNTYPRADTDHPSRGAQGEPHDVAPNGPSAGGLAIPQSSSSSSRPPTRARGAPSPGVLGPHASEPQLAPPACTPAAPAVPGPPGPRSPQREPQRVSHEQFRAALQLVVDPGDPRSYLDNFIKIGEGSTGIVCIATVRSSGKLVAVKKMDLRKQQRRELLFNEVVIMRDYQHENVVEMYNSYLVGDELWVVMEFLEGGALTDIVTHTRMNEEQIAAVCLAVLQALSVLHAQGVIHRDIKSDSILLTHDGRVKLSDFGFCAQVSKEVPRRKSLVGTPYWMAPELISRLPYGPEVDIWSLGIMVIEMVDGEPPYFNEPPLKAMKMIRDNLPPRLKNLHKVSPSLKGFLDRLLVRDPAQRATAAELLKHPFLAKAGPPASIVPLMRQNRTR", "assay": "Inhibition of PAK4 assessed as enzyme activity at 1 uM relative to untreated control", "set-up": "scale not given: the % may be the effect or the level left"}, "[30]": {"molecular_target": "Cyclin-dependent kinase 8 (Homo sapiens) (UniProt P49336)", "sequence (P49336 whole entry)": "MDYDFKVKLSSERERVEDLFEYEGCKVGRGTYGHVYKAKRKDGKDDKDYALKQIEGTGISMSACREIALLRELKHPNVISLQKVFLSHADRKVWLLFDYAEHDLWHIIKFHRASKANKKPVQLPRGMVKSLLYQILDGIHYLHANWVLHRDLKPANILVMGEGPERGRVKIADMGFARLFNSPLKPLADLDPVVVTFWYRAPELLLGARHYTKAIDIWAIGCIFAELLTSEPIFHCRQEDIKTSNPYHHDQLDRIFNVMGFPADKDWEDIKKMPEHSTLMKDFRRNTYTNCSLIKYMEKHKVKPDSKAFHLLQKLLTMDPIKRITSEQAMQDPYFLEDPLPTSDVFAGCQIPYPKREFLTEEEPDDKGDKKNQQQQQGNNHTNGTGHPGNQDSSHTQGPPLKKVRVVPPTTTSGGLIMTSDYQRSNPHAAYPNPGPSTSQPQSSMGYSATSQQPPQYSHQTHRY", "assay": "Inhibition of CDK8 assessed as enzyme activity at 1 uM relative to untreated control", "set-up": "scale not given: the % may be the effect or the level left"}, "[31]": {"molecular_target": "Receptor-interacting serine/threonine-protein kinase 1 (Homo sapiens) (UniProt Q13546)", "sequence (Q13546 whole entry)": "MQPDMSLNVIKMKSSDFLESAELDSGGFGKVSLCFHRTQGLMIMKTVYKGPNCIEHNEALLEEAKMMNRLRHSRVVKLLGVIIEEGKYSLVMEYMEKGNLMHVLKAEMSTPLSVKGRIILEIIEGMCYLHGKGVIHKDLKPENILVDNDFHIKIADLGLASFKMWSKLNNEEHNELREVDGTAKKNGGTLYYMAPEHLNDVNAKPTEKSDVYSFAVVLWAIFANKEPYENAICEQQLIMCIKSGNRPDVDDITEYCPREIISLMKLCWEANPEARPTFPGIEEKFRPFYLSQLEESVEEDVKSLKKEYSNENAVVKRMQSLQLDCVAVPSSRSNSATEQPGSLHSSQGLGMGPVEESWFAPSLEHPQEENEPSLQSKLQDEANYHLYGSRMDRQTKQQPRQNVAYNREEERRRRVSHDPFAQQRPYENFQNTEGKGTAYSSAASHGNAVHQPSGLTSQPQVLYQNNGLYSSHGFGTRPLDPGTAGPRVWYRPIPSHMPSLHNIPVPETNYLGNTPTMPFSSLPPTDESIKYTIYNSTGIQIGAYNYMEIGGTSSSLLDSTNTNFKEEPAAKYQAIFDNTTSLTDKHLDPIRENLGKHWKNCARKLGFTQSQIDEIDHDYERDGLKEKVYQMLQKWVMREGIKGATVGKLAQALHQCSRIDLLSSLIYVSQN", "assay": "Inhibition of RIPK1 assessed as enzyme activity at 1 uM relative to untreated control", "set-up": "scale not given: the % may be the effect or the level left"}, "[32]": {"tested_on": "Mast/stem cell growth factor receptor Kit (Homo sapiens), P10721 [D816V]", "assay": "Inhibition of KIT D816V mutant assessed as enzyme activity at 1 uM relative to untreated control", "set-up": "scale not given: the % may be the effect or the level left"}, "[33]": {"molecular_target": "Mitogen-activated protein kinase 10 (Homo sapiens) (UniProt P53779)", "assay": "Inhibition of JNK3 assessed as enzyme activity at 1 uM relative to untreated control", "set-up": "scale not given: the % may be the effect or the level left"}, "[34]": {"molecular_target": "Ephrin type-A receptor 6 (Homo sapiens) (UniProt Q9UF33)", "assay": "Inhibition of EPHA6 assessed as enzyme activity at 1 uM relative to untreated control", "set-up": "scale not given: the % may be the effect or the level left"}, "[35]": {"tested_on": "A-375", "assay": "Antitumor activity against human A375 SQ2 cells xenografted in po dosed CD1 mouse assessed as inhibition of tumor growth administered once daily for 14 days", "assay_type": "functional", "settings": "336 h"}, "[36]": {"molecular_target": "Dual specificity protein kinase CLK1 (Homo sapiens) (UniProt P49759)", "assay": "Inhibition of CLK1 assessed as enzyme activity at 1 uM relative to untreated control", "set-up": "scale not given: the % may be the effect or the level left"}, "[37]": {"molecular_target": "Uncharacterized serine/threonine-protein kinase SBK3 (Homo sapiens) (UniProt P0C264)", "assay": "Inhibition of SgK110 assessed as enzyme activity at 1 uM relative to untreated control", "set-up": "scale not given: the % may be the effect or the level left"}, "[38]": {"molecular_target": "Cyclin-dependent kinase 16 (Homo sapiens) (UniProt Q00536)", "assay": "Inhibition of PCTK1 assessed as enzyme activity at 1 uM relative to untreated control", "set-up": "scale not given: the % may be the effect or the level left"}, "[39]": {"molecular_target": "Calcium/calmodulin-dependent protein kinase type II subunit gamma (Homo sapiens) (UniProt Q13555)", "assay": "Inhibition of CAMK2G assessed as enzyme activity at 1 uM relative to untreated control", "set-up": "scale not given: the % may be the effect or the level left"}}}
{"smiles": "Cc1ccc2c(Nc3ccc(Cl)cc3)nccc2c1Nc1ncccc1-c1ncnc2[nH]cnc12.Cl.Cl.Cl", "values": [{"measurement": "Activity", "setting": "[1]", "value": 98, "unit": "%"}, {"measurement": "Activity", "setting": "[2]", "value": 100, "unit": "%"}, {"measurement": "Activity", "setting": "[3]", "value": 9.4, "unit": "%"}, {"measurement": "Activity", "setting": "[4]", "value": 100, "unit": "%"}, {"measurement": "Activity", "setting": "[5]", "value": 100, "unit": "%"}, {"measurement": "Activity", "setting": "[6]", "value": 90, "unit": "%"}, {"measurement": "Activity", "setting": "[7]", "value": 100, "unit": "%"}, {"measurement": "Activity", "setting": "[8]", "value": 96, "unit": "%"}, {"measurement": "Activity", "setting": "[9]", "value": 100, "unit": "%"}, {"measurement": "Activity", "setting": "[10]", "value": 86, "unit": "%"}, {"measurement": "half-life", "setting": "[11]", "value": 3.3, "unit": "h"}, {"measurement": "Activity", "setting": "[12]", "value": 100, "unit": "%"}, {"measurement": "Activity", "setting": "[13]", "value": 96, "unit": "%"}, {"measurement": "Activity", "setting": "[14]", "value": 100, "unit": "%"}, {"measurement": "clearance", "setting": "[15]", "value": 3.17, "unit": "mL/min"}, {"measurement": "Activity", "setting": "[16]", "value": 53, "unit": "%"}, {"measurement": "Activity", "setting": "[17]", "value": 84, "unit": "%"}, {"measurement": "Activity", "setting": "[18]", "value": 73, "unit": "%"}, {"measurement": "Activity", "setting": "[19]", "value": 92, "unit": "%"}, {"measurement": "Activity", "setting": "[20]", "value": 100, "unit": "%"}, {"measurement": "Activity", "setting": "[21]", "value": 65, "unit": "%"}, {"measurement": "bioavailability", "setting": "[22]", "value": 79, "unit": "%"}, {"measurement": "Activity", "setting": "[23]", "value": 84, "unit": "%"}, {"measurement": "clearance", "setting": "[24]", "value": 6.67, "unit": "mL/min/kg"}, {"measurement": "Activity", "setting": "[25]", "value": 100, "unit": "%"}, {"measurement": "Activity", "setting": "[26]", "value": 86, "unit": "%"}, {"measurement": "Activity", "setting": "[27]", "value": 93, "unit": "%"}, {"measurement": "Activity", "setting": "[28]", "value": 100, "unit": "%"}, {"measurement": "Activity", "setting": "[29]", "value": 92, "unit": "%"}, {"measurement": "Activity", "setting": "[30]", "value": 100, "unit": "%"}, {"measurement": "Activity", "setting": "[31]", "value": 92, "unit": "%"}, {"measurement": "Activity", "setting": "[32]", "value": 100, "unit": "%"}, {"measurement": "Activity", "setting": "[33]", "value": 86, "unit": "%"}, {"measurement": "Activity", "setting": "[34]", "value": 2.8, "unit": "%"}, {"measurement": "ED50", "setting": "[35]", "value": 1.3, "unit": "mg/kg"}, {"measurement": "Activity", "setting": "[36]", "value": 100, "unit": "%"}, {"measurement": "Activity", "setting": "[37]", "value": 78, "unit": "%"}, {"measurement": "Activity", "setting": "[38]", "value": 98, "unit": "%"}, {"measurement": "Activity", "setting": "[39]", "value": 98, "unit": "%"}]}
